Test results published in patent EP4810486A1, “CRYSTAL OF HETEROCYCLIC DERIVATIVE” (Nippon Shinyaku Co., Ltd., priority 2023, dated 2025).

Columns and labels:
Assay type in all cases: physicochemical
[1] = Stability test of Form-I crystal when mixed with excipient (40°C, 75% relative humidity, open system; HPLC and visual inspection); conditions: for observation of the color of the crystal: crystal only and all excipient mixtures, visual inspection
Method: The Form-I crystal of the p-TsOH salt of the compound A was mixed with each of various excipients at a mass ratio of 1:1 using a mortar, was allowed to stand in a thermo-hygrostat at a temperature of 40°C and a relative humidity of 75% in an open system for 2 weeks or 1 month, and then evaluated for the presence/absence of decomposition using HPLC and checked for color change by visual inspection. The stability of only the Form-I crystal of the p-TsOH salt of the compound A was also evaluated as a reference. The conditions for HPLC are as follows. • Instrument: SHIMADZU LC-2010 CHT • Column: COSMOSIL 3C18-MSII 4.6×100 mm • Column temperature: 40°C • Mobile phase: Liquid A; MeCN/H2O/MsOH = 600/400/1 Liquid B: MeCN/H2O/MsOH = 900/100/1 • Gradient: 0-8 min; A = 100% • 8-10 min; A to B • 10-20 min; B = 100% • 20-21 min; B to A • Flow rate: 0.5 mL/min • Wavelength: 230 nm
The results of the percentage (%) of the area of the peak of the Form-I crystal of the p-TsOH salt of the compound A in the observed peaks in HPLC and observation of the color of the crystal are shown in Table 3. According to Table 3, no decomposition of the Form-I crystal of the p-TsOH salt of the compound A was observed under the conditions of mixing with any of the excipients, and no color change occurred. […]

[2] = Stability evaluation on exposure to heating, light or humidifying stimulus (HPLC)
Method: The Form-I crystal of the p-TsOH salt of the compound A and the free form crystal of the compound A prepared according to the method described in PATENT DOCUMENT 1 were exposed to heating stimulus (allowed to stand at 60°C for 24 hours), light stimulus (light source: D65 lamp, total intensity: 1.2 million lx·hr), or humidifying stimulus (allowed to stand at 30°C and a relative humidity of 90% for 24 hours), and the stability thereof was evaluated based on the percentage (%) of the area of the peak of the free form of the compound A or the Form-I crystal of the p-TsOH salt of the compound A in the observed peaks in HPLC with and without exposure to the stimuli.

[3] = Stability of crystal form on mechanical stimulus and water (X-ray powder diffraction); conditions: pulverized, water-treated, stored at 30°C, relative humidity 90%, tableted (2,000 kgf × 30 min)
Method: X-ray powder diffraction measurement was performed for a crystal (pulverized) obtained by pulverizing the Form-I crystal of the p-TsOH salt of the compound A in a mortar, a crystal (water-treated) obtained by kneading the Form-I crystal of the p-TsOH salt of the compound A after adding water, a sample of the Form-I crystal of the p-TsOH salt of the compound A stored under a humidifying stimulus condition (30°C, relative humidity of 90%), and a sample obtained by tableting the Form-I crystal of the p-TsOH salt of the compound A (2,000 kgf × 30 min). The results are shown in FIG. 24 together with the results of the Form-I crystal of the p-TsOH salt of the compound A not undergoing any treatment (untreated).

[4] = Stability test of Form-III crystal at 40°C and 75% relative humidity; conditions: relative humidity 75%
Method: About 10 mg of the Form-III crystal of the p-TsOH salt of the compound A obtained in Example 2 was allowed to stand at 40°C and a relative humidity of 75% for 7 days or longer, and as a result, the Form-III crystal of the p-TsOH salt of the compound A was able to exist stably for 7 days or longer.

[5] = Relative stability between crystals: six forms stirred together in DMF/toluene (X-ray powder diffraction); conditions: Form-I, III, IV, V, VI, VII, 100 mg each, in DMF/toluene 1:9, stirred at 20°C or 55°C
Method: The crystals of the p-TsOH salt of the compound A prepared in Examples 1 to 3 and Comparative Examples 1 to 3 were each weighed in 100 mg, a total of 600 mg was added to 30 mL of a mixed solvent of DMF and toluene having a volume ratio of 1:9, and the mixture was stirred at 20°C or 55°C. After 3, 4, 7, and 8 days from the start of stirring at 20°C, and after 3 and 4 days from the start of stirring at 55°C, the crystal form of the p-TsOH salt of the compound A in the mixed solution was measured by X-ray powder diffraction.

[6] = Thermal stability of Form-II crystal (X-ray powder diffraction while heating and cooling); conditions: heated to 30°C, 150°C, 200°C, then cooled to 150°C and 30°C
Method: Therefore, for the Form-II crystal of the p-TsOH salt of the compound A, the crystal form was examined by X-ray powder diffraction while increasing the temperature to 30°C, 150°C, and 200°C, and then the crystal form was further examined by X-ray powder diffraction while cooling to 150°C and 30°C.

[7] = Relative stability of Form-I to Form-III crystals: pairs stirred in acetone (X-ray powder diffraction); conditions: pairs at mass ratio 1:1 in acetone, 30°C, 42 hours
Method: The Form-I crystal and the Form-II crystal of the p-TsOH salt of the compound A, the Form-I crystal and the Form-III crystal of the p-TsOH salt of the compound A, or the Form-II crystal and the Form-III crystal of the p-TsOH salt of the compound A were added to acetone at a mass ratio of 1:1, and the mixture was stirred at 30°C for 42 hours. Then, the crystal form of the p-TsOH salt of the compound A in the solution was examined by X-ray powder diffraction, and as a result, under all the three conditions, each of the crystals of the p-TsOH salt of the compound A in the solution transitioned to a Form-I crystal.

[8] = Stability of Form-I crystal in various solvents (X-ray powder diffraction); conditions: pulverized crystal in methanol, ethyl acetate or methyl ethyl ketone, 40°C, 115 hours
Method: In order to facilitate the transition of the crystal form by a solvent, the Form-I crystal of the p-TsOH salt of the compound A was pulverized in a mortar. The obtained pulverized material was added to methanol, ethyl acetate, or methyl ethyl ketone, and the mixture was stirred at 40°C for 115 hours. After stirring, the crystal form of the p-TsOH salt of the compound A in the solution was examined by X-ray powder diffraction, and the results are shown in FIG. 28.

[9] = Crystal form transition on heating (relative stability of crystal forms)
Method: The Form-V crystal of the p-TsOH salt of the compound A obtained in Comparative Example 1 was heated at 205°C for 10 minutes, and as a result, a Form-III crystal of the p-TsOH salt of the compound A was obtained.
The Form-VI crystal of the p-TsOH salt of the compound A obtained in Comparative Example 2 was heated at 190°C for 10 minutes, and as a result, a Form-III crystal of the p-TsOH salt of the compound A was obtained.

[10] = Crystal form transition on standing at 40°C and 75% relative humidity (relative stability); conditions: 1/2 acetonitrile solvate crystal at 40°C, relative humidity 75%, 7 days gave Form-IV crystal
Method: About 10 mg of the 1/2 acetonitrile solvate crystal of the p-TsOH salt of the compound A obtained in Example 3 was allowed to stand at 40°C and a relative humidity of 75% for 7 days, and as a result, a Form-IV crystal of the p-TsOH salt of the compound A was obtained.

[11] = Differential thermal analysis and thermogravimetric analysis (TG/DTA); conditions: heating rate 10.0°C/min, nitrogen
Method: TG/DTA in Examples 1 to 11 was measured by TG-8120 (manufactured by Rigaku Corporation) (cell: alumina (open), gas: nitrogen, heating rate: 10.0°C/min, hold temperature: 300°C, hold time: 0 min) unless otherwise specified.
The results of differential scanning calorimetry (DSC) of the Form-I crystal of the p-TsOH salt of the compound A are shown in FIG. 2. The results of thermophysical property measurement by differential thermal analysis (DTA) and thermogravimetric analysis (TGA) of the Form-I crystal of the p-TsOH salt of the compound A are shown in FIG. 3.

[12] = Heating stimulus: 60°C for 24 hours
[13] = Humidifying stimulus: 30°C, relative humidity 90%, 24 hours
[14] = Light stimulus: D65 lamp, total intensity 1.2 million lx·hr

## COCc1nc2c(C(=O)Nc3cccc(Cl)c3C)cc(NC(=O)c3ccccc3C(F)(F)F)cc2[nH]1.Cc1ccc(S(=O)(=O)O)cc1 [N-(3-chloro-2-methylphenyl)-2-(methoxymethyl)-6-({[2-(trifluoromethyl)phenyl]carbonyl}amino)-1H-benzimidazole-4-carboxamide 4-methylbenzenesulfonate]
[1]; Crystal only, 1 month at 40°C, relative humidity 75%, open system
  percentage (%) of the area of the peak of the Form-I crystal of the p-TsOH salt of the compound A in the observed peaks in HPLC: 99.68%
[1]; Crystal only, 2 weeks at 40°C, relative humidity 75%, open system
  percentage (%) of the area of the peak of the Form-I crystal of the p-TsOH salt of the compound A in the observed peaks in HPLC: 99.70%
[1]; Crystal only, immediately after mixing
  percentage (%) of the area of the peak of the Form-I crystal of the p-TsOH salt of the compound A in the observed peaks in HPLC: 99.71%
[1]; 1 month at 40°C, relative humidity 75%
  observation of the color of the crystal: No color change under any conditions
[1]; 2 weeks at 40°C, relative humidity 75%
  observation of the color of the crystal: No color change under any conditions
[1]; mixed 1:1 with Corn starch, 1 month at 40°C, relative humidity 75%
  percentage (%) of the area of the peak of the Form-I crystal of the p-TsOH salt of the compound A in the observed peaks in HPLC: 99.66%
[1]; mixed 1:1 with Corn starch, 2 weeks at 40°C, relative humidity 75%
  percentage (%) of the area of the peak of the Form-I crystal of the p-TsOH salt of the compound A in the observed peaks in HPLC: 99.66%
[1]; mixed 1:1 with Corn starch, immediately after mixing
  percentage (%) of the area of the peak of the Form-I crystal of the p-TsOH salt of the compound A in the observed peaks in HPLC: 99.71%
[1]; mixed 1:1 with Crystalline cellulose, 1 month at 40°C, relative humidity 75%
  percentage (%) of the area of the peak of the Form-I crystal of the p-TsOH salt of the compound A in the observed peaks in HPLC: 99.69%
[1]; mixed 1:1 with Crystalline cellulose, 2 weeks at 40°C, relative humidity 75%
  percentage (%) of the area of the peak of the Form-I crystal of the p-TsOH salt of the compound A in the observed peaks in HPLC: 99.65%
[1]; mixed 1:1 with Crystalline cellulose, immediately after mixing
  percentage (%) of the area of the peak of the Form-I crystal of the p-TsOH salt of the compound A in the observed peaks in HPLC: 99.73%
[1]; mixed 1:1 with D-Mannitol, 1 month at 40°C, relative humidity 75%
  percentage (%) of the area of the peak of the Form-I crystal of the p-TsOH salt of the compound A in the observed peaks in HPLC: 99.71%
[1]; mixed 1:1 with D-Mannitol, 2 weeks at 40°C, relative humidity 75%
  percentage (%) of the area of the peak of the Form-I crystal of the p-TsOH salt of the compound A in the observed peaks in HPLC: 99.70%
[1]; mixed 1:1 with D-Mannitol, immediately after mixing
  percentage (%) of the area of the peak of the Form-I crystal of the p-TsOH salt of the compound A in the observed peaks in HPLC: 99.63%
[1]; mixed 1:1 with Lactose, 1 month at 40°C, relative humidity 75%
  percentage (%) of the area of the peak of the Form-I crystal of the p-TsOH salt of the compound A in the observed peaks in HPLC: 99.58%
[1]; mixed 1:1 with Lactose, 2 weeks at 40°C, relative humidity 75%
  percentage (%) of the area of the peak of the Form-I crystal of the p-TsOH salt of the compound A in the observed peaks in HPLC: 99.74%
[1]; mixed 1:1 with Lactose, immediately after mixing
  percentage (%) of the area of the peak of the Form-I crystal of the p-TsOH salt of the compound A in the observed peaks in HPLC: 99.64%
[2]; [12]
  percentage (%) of the area of the peak in the observed peaks in HPLC: 99.69%
[2]; [13]
  percentage (%) of the area of the peak in the observed peaks in HPLC: 99.68%
[2]; [14]
  percentage (%) of the area of the peak in the observed peaks in HPLC: 99.72%
[2]; No stimulus
  percentage (%) of the area of the peak in the observed peaks in HPLC: 99.70%
[2]; after exposure to heating, light or humidifying stimulus
  change in the color of the crystal: no change in the color of the crystal was observed
[3]
  change in crystal form: no change in crystal form was observed under any of the conditions
[4]
  time for which the crystal was able to exist stably: ≥ 7 days
[5]
  most stable form among the crystals: the most stable form
[6]
  stability against heat: rather stable against heat
[7]
  most stable form among Form-I, Form-II and Form-III crystals: the most stable form
[8]
  change in crystal form: no change in crystal form was observed under any of the conditions
[9]; Form-V crystal heated at 205°C for 10 minutes gave Form-III crystal
  relative stability of crystal forms: higher stability than the Form-V crystal
[9]; Form-VI crystal heated at 190°C for 10 minutes gave Form-III crystal
  relative stability of crystal forms: higher stability than the Form-VI crystal
[10]
  relative stability of crystal forms: higher stability than the 1/2 acetonitrile solvate crystal of the p-TsOH salt of the compound A obtained in Example 3
[11]
  thermal stability in DTA/TGA: stable without any weight change or endothermic or exothermic heat until decomposition at 200 °C or higher

## COCc1nc2c(C(=O)Nc3cccc(Cl)c3C)cc(NC(=O)c3ccccc3C(F)(F)F)cc2[nH]1 [Free form of compound A, N-(3-chloro-2-methylphenyl)-2-(methoxymethyl)-6-({[2-(trifluoromethyl)phenyl]carbonyl}amino)-1H-benzimidazole-4-carboxamide]
[2]; [12]
  percentage (%) of the area of the peak in the observed peaks in HPLC: 99.76%
[2]; [13]
  percentage (%) of the area of the peak in the observed peaks in HPLC: 99.76%
[2]; [14]
  percentage (%) of the area of the peak in the observed peaks in HPLC: 99.74%
[2]; No stimulus
  percentage (%) of the area of the peak in the observed peaks in HPLC: 99.78%
